Legend:
COX-1 = COX-1 (Homo sapiens, UniProt P23219); experiment: Inhibitory activity on COX-1 (PGE2 production from arachidonic acid, PGE2 ELISA; Needleman method); assay type: biochemical; conditions: 1 mM arachidonic acid, 1 μM hematin, pH 8.0, 37° C., 10 min
Protocol: (§1) Pharmacological experiment are as follows. Inhibitory activity of compounds on COX-1 and COX-2 were assayed according to the method of Needleman (J. Biol. Chem., 254, 9772, 1979). One unit of COX-1 or COX-2 enzyme, suspended with Tris-HCl buffer (pH 8.0, 500 μl) containing 1 μM hematin as co-factor, was incubated with compound and 1 mM arachidonic acid at 37° C. for 10 min. The reaction was stopped with 50 mM indomethacin (50 μl), and amounts of PGE2 in the reaction mixture was assayed using PGE2 ELISA system.

COX-2 = target: T1, COX-2 (Homo sapiens, UniProt P35354); experiment: Inhibitory activity on COX-2 (PGE2 production from arachidonic acid, PGE2 ELISA; Needleman method); assay type: biochemical; conditions: 1 mM arachidonic acid, 1 μM hematin, pH 8.0, 37° C., 10 min
T1 sequence (P35354 18-604): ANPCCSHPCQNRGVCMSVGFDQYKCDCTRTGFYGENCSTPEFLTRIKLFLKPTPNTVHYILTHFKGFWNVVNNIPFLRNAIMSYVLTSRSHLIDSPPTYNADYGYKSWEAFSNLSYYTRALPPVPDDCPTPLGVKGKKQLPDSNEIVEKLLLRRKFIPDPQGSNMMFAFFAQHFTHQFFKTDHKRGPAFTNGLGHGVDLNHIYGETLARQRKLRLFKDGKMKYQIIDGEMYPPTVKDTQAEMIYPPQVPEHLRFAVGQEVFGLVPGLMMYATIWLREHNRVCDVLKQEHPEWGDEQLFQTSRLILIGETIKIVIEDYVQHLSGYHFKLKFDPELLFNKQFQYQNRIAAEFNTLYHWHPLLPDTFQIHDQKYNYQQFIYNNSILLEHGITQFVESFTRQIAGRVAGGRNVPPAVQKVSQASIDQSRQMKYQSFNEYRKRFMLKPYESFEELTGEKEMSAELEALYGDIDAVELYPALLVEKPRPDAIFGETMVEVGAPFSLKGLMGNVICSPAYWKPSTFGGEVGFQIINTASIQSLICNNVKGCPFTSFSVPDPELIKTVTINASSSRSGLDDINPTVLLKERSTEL
Protocol: as §1

Chain of COX-1 (P23219 24-599): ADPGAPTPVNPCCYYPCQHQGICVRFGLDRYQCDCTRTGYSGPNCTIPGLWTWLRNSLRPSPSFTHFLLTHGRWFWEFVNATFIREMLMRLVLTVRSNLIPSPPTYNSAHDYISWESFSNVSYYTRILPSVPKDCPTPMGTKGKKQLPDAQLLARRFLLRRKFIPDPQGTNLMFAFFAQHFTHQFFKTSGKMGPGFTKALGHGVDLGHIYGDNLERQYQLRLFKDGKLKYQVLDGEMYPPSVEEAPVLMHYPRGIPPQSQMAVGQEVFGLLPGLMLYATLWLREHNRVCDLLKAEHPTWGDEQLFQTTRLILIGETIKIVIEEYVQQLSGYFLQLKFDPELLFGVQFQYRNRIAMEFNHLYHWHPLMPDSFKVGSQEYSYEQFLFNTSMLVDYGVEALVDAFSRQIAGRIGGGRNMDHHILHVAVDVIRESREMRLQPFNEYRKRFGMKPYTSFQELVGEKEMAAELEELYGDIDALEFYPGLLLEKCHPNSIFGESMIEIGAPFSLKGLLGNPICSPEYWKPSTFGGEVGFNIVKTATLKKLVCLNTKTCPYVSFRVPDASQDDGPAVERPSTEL

SMILES	IC50 (COX-1)	IC50 (COX-2)
CS(=O)(=O)c1ccc(-c2cc3cccccc-3c2-c2ccccc2)cc1 [Compound 1, 2-(4-Methylsulfonylphenyl)-1-phenylazulene]	> 10000 nM	760 nM
CS(=O)(=O)c1ccc(-c2cc3cccccc-3c2-c2ccccc2Cl)cc1 [Compound 2, 1-(2-Chlorophenyl)-2-(4-methylsulfonylphenyl)azulene]	> 10000 nM	6900 nM
CS(=O)(=O)c1ccc(-c2cc3cccccc-3c2-c2cccc(F)c2)cc1 [Compound 5, 1-(3-Fluorophenyl)-2-(4-methylsulfonylphenyl)azulene]	> 10000 nM	> 10000 nM
CS(=O)(=O)c1ccc(-c2cc3cccccc-3c2-c2ccc(F)cc2)cc1 [Compound 6, 1-(4-Fluorophenyl)-2-(4-methylsulfonylphenyl)azulene]	> 10000 nM	1200 nM
COc1cccc(-c2c3cccccc-3cc2-c2ccc(S(C)(=O)=O)cc2)c1 [Compound 9, 1-(3-Methoxyphenyl)-2-(4-methylsulfonylphenyl)azulene]	> 10000 nM	4800 nM
COc1ccc(-c2c3cccccc-3cc2-c2ccc(S(C)(=O)=O)cc2)cc1 [Compound 10, 1-(4-Methoxyphenyl)-2-(4-methylsulfonylphenyl)azulene]	> 10000 nM	3700 nM
COc1ccc(-c2c3cccccc-3cc2-c2ccc(S(C)(=O)=O)cc2)cc1F [Compound 14, 1-(3-Fluoro-4-methoxyphenyl)-2-(4-methylsulfonylphenyl)azulene]	> 10000 nM	8.4 nM
CS(=O)(=O)c1ccc(-c2c(F)c3cccccc-3c2-c2ccccc2)cc1 [Compound 21, 1-Fluoro-2-(4-methylsulfonylphenyl)-3-phenylazulene]	> 10000 nM	7900 nM
NS(=O)(=O)c1ccc(-c2cc3cccccc-3c2-c2ccccc2)cc1 [Compound 27, 4-(1-Phenylazulene-2-yl)phenylsulfonamide]	> 10000 nM	8.6 nM
NS(=O)(=O)c1ccc(-c2cc3cccccc-3c2-c2cccc(Cl)c2)cc1 [Compound 28, 4-[1-(3-Chlorophenyl)azulene-2-yl]phenylsulfonamide]	7600 nM	2600 nM
NS(=O)(=O)c1ccc(-c2cc3cccccc-3c2-c2cccc(F)c2)cc1 [Compound 29, 4-[1-(3-Fluorophenyl)azulene-2-yl]phenylsulfonamide]	4700 nM	770 nM
Cc1cccc(-c2c3cccccc-3cc2-c2ccc(S(N)(=O)=O)cc2)c1 [Compound 30, 4-[1-(3-Methylphenyl)azulene-2-yl]phenylsulfonamide]	4300 nM	500 nM
COc1cccc(-c2c3cccccc-3cc2-c2ccc(S(N)(=O)=O)cc2)c1 [Compound 31, 4-[1-(3-Methoxyphenyl)azulene-2-yl]phenylsulfonamide]	> 10000 nM	2500 nM
NS(=O)(=O)c1ccc(-c2cc3cccccc-3c2-c2ccc(F)c(Cl)c2)cc1 [Compound 32, 4-[1-(3-Chloro-4-fluorophenyl)azulene-2-yl]phenylsulfonamide]	> 10000 nM	12 nM
COc1ccc(-c2c3cccccc-3cc2-c2ccc(S(N)(=O)=O)cc2)cc1Cl [Compound 34, 4-[1-(3-Chloro4-methoxyphenyl)azulene-2-yl]phenylsulfonamide]	960 nM	3.4 nM
COc1ccc(-c2c3cccccc-3cc2-c2ccc(S(N)(=O)=O)cc2)cc1F [Compound 35, 4-[l-(3-Fluoro-4-methoxyphenyl)azulene-2-yl]phenylsulfonamide]	6700 nM	22 nM
COc1ccc(-c2c3cccccc-3cc2-c2ccc(S(C)(=O)=O)cc2)cc1OC [Compound 38, 1-(3,4-Dimethoxyphenyl)-2-(4-methylsulfonylphenyl)azulene]	> 10000 nM	64 nM
COc1ccc(-c2c3cccccc-3cc2-c2ccc(S(N)(=O)=O)cc2)cc1OC [Compound 39, 4-[1-(3,4-Dimethoxyphenyl)azulene-2-yl]phenylsulfonamide]	> 10000 nM	290 nM

Next, values leading:

IC50 (COX-1)	IC50 (COX-2)	SMILES
> 10000 nM	9.3 nM	CS(=O)(=O)c1ccc(-c2cc3cccccc-3c2-c2cccc(Cl)c2)cc1 [Compound 3, 1-(3-Chlorophenyl)-2-(4-methylsulfonylphenyl)azulene]
> 10000 nM	30 nM	CS(=O)(=O)c1ccc(-c2cc3cccccc-3c2-c2ccc(Cl)cc2)cc1 [Compound 4, 1-(4-Chlorophenyl)-2-(4-methylsulfonylphenyl)azulene]
> 10000 nM	48 nM	Cc1cccc(-c2c3cccccc-3cc2-c2ccc(S(C)(=O)=O)cc2)c1 [Compound 7, 1-(3-Methylphenyl)-2-(4-methylsulfonylphenyl)azulene]
> 10000 nM	7400 nM	Cc1ccc(-c2c3cccccc-3cc2-c2ccc(S(C)(=O)=O)cc2)cc1 [Compound 8, 1-(4-Methylphenyl)-2-(4-methylsulfonylphenyl)azulene]
> 10000 nM	83 nM	CS(=O)(=O)c1ccc(-c2cc3cccccc-3c2-c2ccc(F)c(Cl)c2)cc1 [Compound 11, 1-(3-Chloro-4-fluorophenyl)-2-(4-methylsulfonylphenyl)azulene]
> 10000 nM	4.9 nM	Cc1ccc(-c2c3cccccc-3cc2-c2ccc(S(C)(=O)=O)cc2)cc1Cl [Compound 12, 1-(3-Chloro-4-methylphenyl)-2-(4-methylsulfonylphenyl)azulene]
> 10000 nM	19 nM	COc1ccc(-c2c3cccccc-3cc2-c2ccc(S(C)(=O)=O)cc2)cc1Cl [Compound 13, 1-(3-Chloro4-methoxyphenyl)-2-(4-methylsulfonylphenyl)azulene]
4100 nM	2.6 nM	Cc1ccc(-c2c3cccccc-3cc2-c2ccc(S(N)(=O)=O)cc2)cc1Cl [Compound 33, 4-[1-(3-Chloro4-methylphenyl)azulene-2-yl]phenylsulfonamide]
